Measured values published in paper PMC9457997, “2-(Nitroaryl)-5-Substituted-1,3,4-Thiadiazole Derivatives with Antiprotozoal Activities: In Vitro and In Vivo Study” (Molecules, 2022).
pIC50: −log10 of the molar value. ≈ marks a conversion by molar mass, not a printed value. Like-named read-outs stand apart in the source and are kept apart here.

Experiments:
[1] = tested on: T. cruzi, strain Tulahuen C4 amastigotes; assay: In vitro activity against T. cruzi amastigotes; assay type: cell-based; details: Trypanosoma cruzi, read-out: T. cruzi IC50
Experimental: Although all of the compounds had been tested against Leishmania major promastigotes in our previous works, to deeper evaluate the antitrypanosomatid potential of the selected nitroimidazole derivatives, their activity was measured against L. donovani axenic amastigotes and T. cruzi amastigotes (Table 2). Miltefosine and benznidazole were used as reference drugs. Compounds 18a and 18g were also tested against L. donovani intracellular amastigotes in peritoneal murine macrophages in a further assay. […]. In vitro activity against the protozoan parasites T. b. rhodesiense, T.cruzi, L. donovani and cytotoxicity assessment against L6 cells were determined as reported previously. The following strains, parasite forms, and positive controls were used: T. b. rhodesiense STIB 900 bloodstream forms, melarsoprol (received from WHO, Arsobal Sanofi); T.cruzi Tulahuen C2C4 intracellular amastigotes, benznidazole (received from DNDi synthesized by Epichem Pty Ltd., Murdoch, Australia); L. donovani MHOM-ET-67/L82 axenically grown amastigotes and intracellular amastigotes, miltefosine (Sigma M5571). L6 rat skeletal myoblasts (ATCC CRL-1458), podophyllotoxin (Sigma P4405).

T. b. rhodesiense = details: cited from earlier work
HAT mouse model = details: cited from earlier work
[2] = design: method as in PMID 29191556; details: cited from earlier work
T. b. brucei = details: cited from earlier work
T. brucei = details: cited from earlier work
[3] = tested on: T. b. rhodesiense, strain STIB 900 trypomastigotes; assay: In vitro activity against T. b. rhodesiense STIB 900 bloodstream forms; assay type: cell-based; details: Trypanosoma brucei, read-out: T. b. rhodesiense IC50
in vitro = details: rat
[4] = tested on: L. donovani, strain MHOM-ET-67/L82 axenically grown amastigotes; assay: In vitro activity against L. donovani axenic amastigotes; assay type: cell-based; details: for pIC50: Leishmania donovani, strain MHOM-ET-67/L82 axenically grown amastigotes, means of two independent assays; for TDR criteria class against L. donovani amastigotes: TDR criteria for antiparasitic activity
Experimental: (§1) Miltefosine and benznidazole were used as reference drugs. […] In vitro activity against the protozoan parasites T. b. rhodesiense, T.cruzi, L. donovani and cytotoxicity assessment against L6 cells were determined as reported previously. The following strains, parasite forms, and positive controls were used: T. b. rhodesiense STIB 900 bloodstream forms, melarsoprol (received from WHO, Arsobal Sanofi); T.cruzi Tulahuen C2C4 intracellular amastigotes, benznidazole (received from DNDi synthesized by Epichem Pty Ltd., Murdoch, Australia); L. donovani MHOM-ET-67/L82 axenically grown amastigotes and intracellular amastigotes, miltefosine (Sigma M5571).

[5] = tested on: L. donovani intracellular amastigotes in peritoneal murine macrophages; assay: In vitro activity against L. donovani intracellular amastigotes; assay type: cell-based; details: Leishmania donovani, Macrophage, means of two independent assays
Experimental: as §1

[6] = tested on: T. b. rhodesiense STIB 900; assay: T. b. rhodesiense STIB 900 acute mouse model of HAT; assay type: in vivo; details: for Cured/Infected / Mean Survival Days (MSD): 4 × 50 mg/kg i.p., acute mouse model STIB 900
Experimental: […]. All of these compounds were administered at an intraperitoneal dose of 50 mg/kg/day for 4 days. […] A total of three of the four mice treated with morpholine derivative 18b were cured and the parasite was not found in the blood of one mouse until day 60 of infection. […] All of the mice treated with compound 18f survived 60 days, but one mouse was parasite positive. Compound 18d presented the least cure rate; a total of three mice were parasite positive and died between days 15 and 20, and one mouse survived.
The in vivo efficacy was determined in the T. b. rhodesiense STIB 900 acute mouse model that mimics the first stage of the disease as described earlier. In vivo efficacy studies in mice were conducted at the Swiss Tropical and Public Health Institute (Basel) (License number 2813), according to the rules and regulations for the protection of animal rights (“Tierschutzverordnung”) of the Swiss “Bundesamt für Veterinärwesen”. They were approved by the veterinary office of Canton Basel-Stadt, Switzerland.

T. b. gambiense = details: gambiense HAT patients; cited from earlier work
Cytotoxicity in L6 cells = details: rat
[7] = read-out: IC50 against T. b. rhodesiense
[8] = read-out: IC50 against T. b. brucei
[9] = strain STIB 900 trypomastigotes (BSF form), means of two independent assays

O=C(Cn1ccnc1[N+](=O)[O-])NCc1ccccc1 [Benznidazole, reference compound]
pIC50 [1]: 5.84

O=[N+]([O-])c1nccn1CCCNc1ccnc2c(Cl)cccc12 [Compound 2]
pIC50 (T. b. rhodesiense; [7]): 5.89

O=[N+]([O-])c1cn2c(n1)[S+]([O-])CC(OCc1ccc(OC(F)(F)F)cc1)C2 (stereo not drawn) [Compound 3]
cure rate in an acute infection mouse model of HAT (HAT mouse model): 100%
metabolic stability [2]: good metabolic stability

O=C1NC(c2ccccc2)=CN2C=C([N+](=O)[O-])NC12 (stereo not drawn) [Compound 5a]
pIC50 (T. b. brucei; read-out: IC50 against T. brucei brucei): 6.66

O=c1c2nc([N+](=O)[O-])cn2ccn1Cc1ccc(-c2ccc(OC(F)(F)F)cc2)cn1 [Compound 6]
pIC50 (T. b. brucei; [8]): 8.70

CN(C)c1nc(N/N=C/c2ccc([N+](=O)[O-])o2)nc(N(C)C)n1 [Compound 7]
pIC50 (T. b. rhodesiense; read-out: IC50 against trypomastigotes of T. brucei rhodesiense): 8.52

CCCCCCCOC(=O)N/N=C/c1ccc([N+](=O)[O-])o1 [Compound 8]
pIC50 (T. brucei; read-out: IC50 against the BSF form of T. brucei): 6.92

C=CCOc1ccc(NC(=O)c2ccc([N+](=O)[O-])o2)cc1C(F)(F)F [Compound 9]
pIC50 (T. b. rhodesiense; [7]): 8.54
pIC50 (T. b. brucei; [8]): 8.62

O=C(N/N=C\c1coc([N+](=O)[O-])c1)C12CC3CC(C1)CC(C(=O)N/N=C/c1ccc([N+](=O)[O-])o1)(C3)C2 [Compound 10]
pIC50 (T. brucei; read-out: IC50 against T. brucei): 7.12

CC(C)N(CCO/N=C/c1ccc([N+](=O)[O-])s1)C(C)C [Compound 11]
MIC, trypanocidal activity (T. brucei): 1 µg/mL (≈ 3.34 µM)

O=[N+]([O-])c1ccc(-c2nnc(N3CCCCC3)s2)o1 [Compound 16a]
pIC50 [3, 9]: 6.62
pIC50 (in vitro): 5.60

O=[N+]([O-])c1ccc(-c2nnc(N3CCOCC3)s2)o1 [Compound 16b]
pIC50 [3, 9]: 6.04
pIC50 (in vitro): 5.25

O=[N+]([O-])c1ccc(-c2nnc(N3CCNCC3)s2)o1 [Compound 16c]
pIC50 [3, 9]: 7.22
pIC50 (in vitro): 5.97

CN1CCN(c2nnc(-c3ccc([N+](=O)[O-])o3)s2)CC1 [Compound 16d]
pIC50 [3, 9]: 6.62
pIC50 (in vitro): 5.87

O=[N+]([O-])c1ccc(-c2nnc(N3CCN(c4ccccc4)CC3)s2)o1 [Compound 16e]
pIC50 [3, 9]: 6.27
pIC50 (in vitro): 5.19

CC(=O)N1CCN(c2nnc(-c3ccc([N+](=O)[O-])o3)s2)CC1 [Compound 16f]
pIC50 [3, 9]: 7.09
pIC50 (in vitro): 5.60

O=[N+]([O-])c1ccc(-c2nnc(N3CCCCC3)s2)s1 [Compound 17a]
pIC50 [3, 9]: 6.19
pIC50 (in vitro): 3.65

O=[N+]([O-])c1ccc(-c2nnc(N3CCOCC3)s2)s1 [Compound 17b]
pIC50 [3, 9]: 5.93
pIC50 (in vitro): < 3.52

O=[N+]([O-])c1ccc(-c2nnc(N3CCNCC3)s2)s1 [Compound 17c]
pIC50 [3, 9]: 6.46
pIC50 (in vitro): 5.20

CN1CCN(c2nnc(-c3ccc([N+](=O)[O-])s3)s2)CC1 [Compound 17d]
pIC50 [3, 9]: 5.94
pIC50 (in vitro): 4.39

O=[N+]([O-])c1ccc(-c2nnc(N3CCN(c4ccccc4)CC3)s2)s1 [Compound 17e]
pIC50 [3, 9]: 4.93
pIC50 (in vitro): 4.25

CC(=O)N1CCN(c2nnc(-c3ccc([N+](=O)[O-])s3)s2)CC1 [Compound 17f]
pIC50 [3, 9]: 5.72
pIC50 (in vitro): 3.65

O=C(c1ccccc1)N1CCN(c2nnc(-c3ccc([N+](=O)[O-])s3)s2)CC1 [Compound 17g]
pIC50 [3, 9]: 6.36
pIC50 (in vitro): 4.29

Cn1c([N+](=O)[O-])cnc1-c1nnc(N2CCCCC2)s1 [Compound 18a]
pIC50 [3, 9]: 6.29
pIC50 [1]: 6.05
pIC50 [4]: 6.32
TDR criteria class against L. donovani amastigotes [4]: active
pIC50 [5]: 5.32
pIC50 (in vitro): < 3.51

Cn1c([N+](=O)[O-])cnc1-c1nnc(N2CCOCC2)s1 [Compound 18b]
pIC50 [3, 9]: 6.84
pIC50 [1]: 6.53
pIC50 [4]: 6.35
TDR criteria class against L. donovani amastigotes [4]: active
Cured/Infected [6]: 3/4
Mean Survival Days (MSD) [6]: >60 days
pIC50 (in vitro): 3.58

Cn1c([N+](=O)[O-])cnc1-c1nnc(N2CCNCC2)s1 [Compound 18c]
pIC50 [3, 9]: 7.92
pIC50 [1]: 6.90
pIC50 [4]: 5.49
death during treatment ([6]; 50 mg/kg/day i.p., mouse excluded from the experimental group): One mouse died on day six
Cured/Infected [6]: 3/3
Mean Survival Days (MSD) [6]: >60 days
pIC50 (in vitro): 3.85

CN1CCN(c2nnc(-c3ncc([N+](=O)[O-])n3C)s2)CC1 [Compound 18d]
pIC50 [3, 9]: 6.85
pIC50 [1]: 6.34
Cured/Infected [6]: 1/4
Mean Survival Days (MSD) [6]: >27.75 days
pIC50 (in vitro): < 3.54

Cn1c([N+](=O)[O-])cnc1-c1nnc(N2CCN(c3ccccc3)CC2)s1 [Compound 18e]
pIC50 [3, 9]: 6.55
pIC50 (in vitro): 3.79

CC(=O)N1CCN(c2nnc(-c3ncc([N+](=O)[O-])n3C)s2)CC1 [Compound 18f]
pIC50 [3, 9]: 7.05
pIC50 [1]: 6.33
Cured/Infected [6]: 3/4
Mean Survival Days (MSD) [6]: >60 days
pIC50 (in vitro): < 3.57

Cn1c([N+](=O)[O-])cnc1-c1nnc(N2CCN(C(=O)c3ccccc3)CC2)s1 [Compound 18g]
pIC50 [1]: 6.52
TDR criteria class against L. donovani amastigotes [4]: active
cure rate ([6]; 50 mg/kg/day i.p. for 4 days, until 60 days after infection): 100%
Cured/Infected [6]: 4/4
Mean Survival Days (MSD) [6]: >60 days

CSc1ccc(OCc2ncc([N+](=O)[O-])n2C)cc1 [Fexinidazole]
cure rate (T. b. gambiense): 91%

Nc1nc(N)nc(Nc2ccc([As]3SCC(CO)S3)cc2)n1 (stereo not drawn) [Melarsoprol, reference compound]
pIC50 [3]: 8.40
pIC50 (Cytotoxicity in L6 cells): 5.02

CCCCCCCCCCCCCCCCOP(=O)([O-])OCC[N+](C)(C)C [Miltefosine, reference compound]
pIC50 [4]: 6.44
pIC50 [5]: 5.74

COc1cc([C@@H]2c3cc4c(cc3[C@H](O)[C@H]3COC(=O)[C@H]23)OCO4)cc(OC)c1OC [Podophyllotoxin]
pIC50 (Cytotoxicity in L6 cells): 8.22
